Data as given in ChEMBL document CHEMBL3817824, “Synthesis and biological evaluation of new [1,2,4]triazolo[4,3-a]pyridine derivatives as potential c-Met inhibitors” (Bioorg Med Chem, 2016).

How the values were obtained:
[1] = Cytotoxicity against human MKN45 cells assessed as reduction in cell survival incubated for 3 days by cell titre-glo assay; format: functional, cell-based; conditions: MKN-45, 72 h
A549 = assay: Cytotoxicity against human A549 cells assessed as reduction in cell survival incubated for 3 days by cell titre-glo assay; format: functional, cell-based; conditions: A549, 72 h
[2] = target: RAC-alpha serine/threonine-protein kinase (Homo sapiens, UniProt P31749); assay: Inhibition of AKT1 (unknown origin) incubated for 1 hr by spectrophotometric analysis
RAC-alpha serine/threonine-protein kinase, sequence (P31749 whole entry): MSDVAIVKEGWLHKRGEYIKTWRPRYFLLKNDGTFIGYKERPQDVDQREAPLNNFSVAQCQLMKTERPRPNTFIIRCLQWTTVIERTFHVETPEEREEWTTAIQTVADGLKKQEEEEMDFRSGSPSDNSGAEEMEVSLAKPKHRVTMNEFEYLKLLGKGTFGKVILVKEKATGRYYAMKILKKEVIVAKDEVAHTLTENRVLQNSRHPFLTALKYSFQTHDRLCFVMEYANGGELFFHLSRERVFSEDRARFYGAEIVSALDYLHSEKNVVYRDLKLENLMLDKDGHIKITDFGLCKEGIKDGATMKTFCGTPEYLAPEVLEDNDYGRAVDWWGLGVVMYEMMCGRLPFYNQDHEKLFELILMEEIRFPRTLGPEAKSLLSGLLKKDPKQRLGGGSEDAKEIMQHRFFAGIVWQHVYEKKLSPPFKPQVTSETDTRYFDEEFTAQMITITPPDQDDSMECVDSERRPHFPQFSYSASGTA

Aurora kinase A = Aurora kinase A (Homo sapiens, UniProt O14965); assay: Inhibition of Aurora A (unknown origin) incubated for 1 hr by spectrophotometric analysis
[3] = target: Protein-tyrosine kinase 6 (Homo sapiens, UniProt Q13882); assay: Inhibition of BRK (unknown origin) incubated for 1 hr by spectrophotometric analysis
[4] = target: Tyrosine-protein kinase BTK (Homo sapiens, UniProt Q06187); assay: Inhibition of BTK (unknown origin) incubated for 1 hr by spectrophotometric analysis
[5] = target: Mast/stem cell growth factor receptor Kit (Homo sapiens, UniProt P10721); assay: Inhibition of c-Kit (unknown origin) incubated for 1 hr by spectrophotometric analysis
Ephrin type-A receptor 2 = Ephrin type-A receptor 2 (Homo sapiens, UniProt P29317); assay: Inhibition of ECK (unknown origin) incubated for 1 hr by spectrophotometric analysis
[6] = target: Epidermal growth factor receptor (Homo sapiens, UniProt P00533, L858R); assay: Inhibition of EGFR L858R mutant (unknown origin) incubated for 1 hr by spectrophotometric analysis; format: protein assay
Ephrin type-A receptor 1 = Ephrin type-A receptor 1 (Homo sapiens, UniProt P21709); assay: Inhibition of EPHA1 (unknown origin) incubated for 1 hr by spectrophotometric analysis
Ephrin type-A receptor 1, sequence (P21709 whole entry): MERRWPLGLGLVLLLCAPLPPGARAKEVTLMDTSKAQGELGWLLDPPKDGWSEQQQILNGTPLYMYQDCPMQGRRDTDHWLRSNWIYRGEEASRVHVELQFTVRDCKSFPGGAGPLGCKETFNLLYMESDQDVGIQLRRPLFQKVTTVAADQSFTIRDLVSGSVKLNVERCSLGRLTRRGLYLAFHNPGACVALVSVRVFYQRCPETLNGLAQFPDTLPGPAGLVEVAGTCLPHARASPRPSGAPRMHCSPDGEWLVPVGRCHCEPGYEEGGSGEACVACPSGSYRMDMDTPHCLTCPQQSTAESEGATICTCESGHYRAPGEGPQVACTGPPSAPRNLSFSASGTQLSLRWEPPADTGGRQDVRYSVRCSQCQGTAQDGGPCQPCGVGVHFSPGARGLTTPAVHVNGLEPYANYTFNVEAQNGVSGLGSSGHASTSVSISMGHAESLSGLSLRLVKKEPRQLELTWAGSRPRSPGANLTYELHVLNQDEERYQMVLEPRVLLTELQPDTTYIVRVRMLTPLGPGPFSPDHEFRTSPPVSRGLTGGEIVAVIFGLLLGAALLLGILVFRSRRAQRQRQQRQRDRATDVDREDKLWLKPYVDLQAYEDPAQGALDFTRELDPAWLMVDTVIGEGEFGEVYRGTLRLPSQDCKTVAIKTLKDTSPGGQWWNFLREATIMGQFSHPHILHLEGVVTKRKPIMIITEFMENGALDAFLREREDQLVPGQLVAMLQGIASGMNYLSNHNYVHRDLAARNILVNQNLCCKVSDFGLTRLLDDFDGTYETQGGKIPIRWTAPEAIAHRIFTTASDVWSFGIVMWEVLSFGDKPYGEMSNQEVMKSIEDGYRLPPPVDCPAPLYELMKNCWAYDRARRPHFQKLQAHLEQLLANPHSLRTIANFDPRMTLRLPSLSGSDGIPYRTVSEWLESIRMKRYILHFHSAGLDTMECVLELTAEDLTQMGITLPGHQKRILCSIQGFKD

Ephrin type-B receptor 2 = Ephrin type-B receptor 2 (Homo sapiens, UniProt P29323); assay: Inhibition of EPHB2 (unknown origin) incubated for 1 hr by spectrophotometric analysis
[7] = target: Mitogen-activated protein kinase 1 (Homo sapiens, UniProt P28482); assay: Inhibition of ERK2 (unknown origin) incubated for 1 hr by spectrophotometric analysis
[8] = target: Tyrosine-protein kinase Fer (Homo sapiens, UniProt P16591); assay: Inhibition of FER (unknown origin) incubated for 1 hr by spectrophotometric analysis
[9] = target: Vascular endothelial growth factor receptor 3 (Homo sapiens, UniProt P35916); assay: Inhibition of FLT4 (unknown origin) incubated for 1 hr by spectrophotometric analysis
[10] = target: Fibroblast growth factor receptor 2 (Homo sapiens, UniProt P21802); assay: Inhibition of FGFR2 (unknown origin) incubated for 1 hr by spectrophotometric analysis
[11] = target: Fibroblast growth factor receptor 4 (Homo sapiens, UniProt P22455); assay: Inhibition of FGFR4 (unknown origin) incubated for 1 hr by spectrophotometric analysis
[12] = target: Receptor tyrosine-protein kinase erbB-4 (Homo sapiens, UniProt Q15303); assay: Inhibition of HER4 (unknown origin) incubated for 1 hr by spectrophotometric analysis
[13] = target: Tyrosine-protein kinase JAK3 (Homo sapiens, UniProt P52333); assay: Inhibition of JAK3 (unknown origin) incubated for 1 hr by spectrophotometric analysis
Tyrosine-protein kinase JAK3, sequence (P52333 whole entry): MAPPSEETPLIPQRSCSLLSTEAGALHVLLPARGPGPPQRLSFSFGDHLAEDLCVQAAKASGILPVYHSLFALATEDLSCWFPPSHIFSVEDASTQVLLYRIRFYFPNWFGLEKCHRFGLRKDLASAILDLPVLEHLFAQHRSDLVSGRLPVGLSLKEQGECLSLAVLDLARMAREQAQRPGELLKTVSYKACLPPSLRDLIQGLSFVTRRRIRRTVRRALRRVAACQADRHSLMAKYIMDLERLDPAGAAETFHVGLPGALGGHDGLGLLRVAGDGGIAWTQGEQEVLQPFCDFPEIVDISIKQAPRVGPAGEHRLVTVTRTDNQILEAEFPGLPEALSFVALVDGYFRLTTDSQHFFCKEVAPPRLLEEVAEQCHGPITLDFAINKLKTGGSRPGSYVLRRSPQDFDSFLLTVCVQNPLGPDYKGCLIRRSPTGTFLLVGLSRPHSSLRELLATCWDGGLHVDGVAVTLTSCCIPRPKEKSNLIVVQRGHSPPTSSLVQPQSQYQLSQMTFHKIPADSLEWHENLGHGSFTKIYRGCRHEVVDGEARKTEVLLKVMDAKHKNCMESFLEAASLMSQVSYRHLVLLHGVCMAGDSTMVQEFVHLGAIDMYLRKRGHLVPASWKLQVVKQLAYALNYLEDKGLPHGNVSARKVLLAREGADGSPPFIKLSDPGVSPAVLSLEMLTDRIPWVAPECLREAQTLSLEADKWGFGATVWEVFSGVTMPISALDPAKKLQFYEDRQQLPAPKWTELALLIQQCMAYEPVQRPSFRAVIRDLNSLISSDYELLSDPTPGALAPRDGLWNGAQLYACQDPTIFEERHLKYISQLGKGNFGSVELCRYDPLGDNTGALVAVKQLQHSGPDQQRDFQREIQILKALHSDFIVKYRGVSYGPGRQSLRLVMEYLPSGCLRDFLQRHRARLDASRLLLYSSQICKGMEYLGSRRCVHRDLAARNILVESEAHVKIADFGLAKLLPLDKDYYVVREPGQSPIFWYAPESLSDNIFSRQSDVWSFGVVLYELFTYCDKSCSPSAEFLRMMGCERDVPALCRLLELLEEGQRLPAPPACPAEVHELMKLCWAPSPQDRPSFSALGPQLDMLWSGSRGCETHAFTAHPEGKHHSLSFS

[14] = target: Mitogen-activated protein kinase 14 (Homo sapiens, UniProt Q16539); assay: Inhibition of p38alpha (unknown origin) incubated for 1 hr by spectrophotometric analysis
[15] = target: Protein kinase C alpha type (Homo sapiens, UniProt P17252); assay: Inhibition of PKCalpha (unknown origin) incubated for 1 hr by spectrophotometric analysis
[16] = target: Serine/threonine-protein kinase N2 (Homo sapiens, UniProt Q16513); assay: Inhibition of PKN2 (unknown origin) incubated for 1 hr by spectrophotometric analysis
Serine/threonine-protein kinase N2, sequence (Q16513 whole entry): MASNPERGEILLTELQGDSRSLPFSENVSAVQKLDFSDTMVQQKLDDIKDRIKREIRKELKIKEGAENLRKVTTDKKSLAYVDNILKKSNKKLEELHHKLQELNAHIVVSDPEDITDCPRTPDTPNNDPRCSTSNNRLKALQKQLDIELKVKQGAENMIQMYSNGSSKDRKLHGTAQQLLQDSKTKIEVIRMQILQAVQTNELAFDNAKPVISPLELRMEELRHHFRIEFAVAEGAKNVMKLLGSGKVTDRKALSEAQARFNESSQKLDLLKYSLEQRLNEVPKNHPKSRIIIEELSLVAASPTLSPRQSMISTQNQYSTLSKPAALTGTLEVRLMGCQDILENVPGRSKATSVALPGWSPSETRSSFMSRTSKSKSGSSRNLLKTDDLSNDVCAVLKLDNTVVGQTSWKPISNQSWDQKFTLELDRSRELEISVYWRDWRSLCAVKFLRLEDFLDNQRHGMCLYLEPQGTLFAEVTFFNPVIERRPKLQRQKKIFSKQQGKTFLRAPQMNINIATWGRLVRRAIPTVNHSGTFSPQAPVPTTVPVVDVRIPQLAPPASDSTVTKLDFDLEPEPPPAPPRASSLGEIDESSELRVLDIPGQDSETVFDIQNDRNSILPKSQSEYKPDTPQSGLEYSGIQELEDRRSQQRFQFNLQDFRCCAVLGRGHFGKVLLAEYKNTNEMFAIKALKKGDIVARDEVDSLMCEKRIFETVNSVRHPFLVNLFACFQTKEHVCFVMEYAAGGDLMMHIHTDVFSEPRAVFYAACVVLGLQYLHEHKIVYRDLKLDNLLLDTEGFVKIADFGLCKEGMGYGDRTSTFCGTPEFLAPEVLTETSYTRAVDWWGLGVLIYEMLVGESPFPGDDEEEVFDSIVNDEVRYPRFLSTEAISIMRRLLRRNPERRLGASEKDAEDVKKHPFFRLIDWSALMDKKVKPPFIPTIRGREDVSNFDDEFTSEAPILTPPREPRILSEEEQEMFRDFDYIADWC

[17] = target: Proto-oncogene tyrosine-protein kinase receptor Ret (Homo sapiens, UniProt P07949); assay: Inhibition of RET (unknown origin) incubated for 1 hr by spectrophotometric analysis
[18] = target: Macrophage-stimulating protein receptor (Homo sapiens, UniProt Q04912); assay: Inhibition of RON (unknown origin) incubated for 1 hr by spectrophotometric analysis
[19] = target: Proto-oncogene tyrosine-protein kinase ROS (Homo sapiens, UniProt P08922); assay: Inhibition of ROS (unknown origin) incubated for 1 hr by spectrophotometric analysis
Angiopoietin-1 receptor = Angiopoietin-1 receptor (Homo sapiens, UniProt Q02763); assay: Inhibition of TIE2 (unknown origin) incubated for 1 hr by spectrophotometric analysis
[20] = target: High affinity nerve growth factor receptor (Homo sapiens, UniProt P04629); assay: Inhibition of TRKA (unknown origin) incubated for 1 hr by spectrophotometric analysis
[21] = target: Non-receptor tyrosine-protein kinase TYK2 (Homo sapiens, UniProt P29597); assay: Inhibition of TYK2 (unknown origin) incubated for 1 hr by spectrophotometric analysis
Non-receptor tyrosine-protein kinase TYK2, sequence (P29597 whole entry): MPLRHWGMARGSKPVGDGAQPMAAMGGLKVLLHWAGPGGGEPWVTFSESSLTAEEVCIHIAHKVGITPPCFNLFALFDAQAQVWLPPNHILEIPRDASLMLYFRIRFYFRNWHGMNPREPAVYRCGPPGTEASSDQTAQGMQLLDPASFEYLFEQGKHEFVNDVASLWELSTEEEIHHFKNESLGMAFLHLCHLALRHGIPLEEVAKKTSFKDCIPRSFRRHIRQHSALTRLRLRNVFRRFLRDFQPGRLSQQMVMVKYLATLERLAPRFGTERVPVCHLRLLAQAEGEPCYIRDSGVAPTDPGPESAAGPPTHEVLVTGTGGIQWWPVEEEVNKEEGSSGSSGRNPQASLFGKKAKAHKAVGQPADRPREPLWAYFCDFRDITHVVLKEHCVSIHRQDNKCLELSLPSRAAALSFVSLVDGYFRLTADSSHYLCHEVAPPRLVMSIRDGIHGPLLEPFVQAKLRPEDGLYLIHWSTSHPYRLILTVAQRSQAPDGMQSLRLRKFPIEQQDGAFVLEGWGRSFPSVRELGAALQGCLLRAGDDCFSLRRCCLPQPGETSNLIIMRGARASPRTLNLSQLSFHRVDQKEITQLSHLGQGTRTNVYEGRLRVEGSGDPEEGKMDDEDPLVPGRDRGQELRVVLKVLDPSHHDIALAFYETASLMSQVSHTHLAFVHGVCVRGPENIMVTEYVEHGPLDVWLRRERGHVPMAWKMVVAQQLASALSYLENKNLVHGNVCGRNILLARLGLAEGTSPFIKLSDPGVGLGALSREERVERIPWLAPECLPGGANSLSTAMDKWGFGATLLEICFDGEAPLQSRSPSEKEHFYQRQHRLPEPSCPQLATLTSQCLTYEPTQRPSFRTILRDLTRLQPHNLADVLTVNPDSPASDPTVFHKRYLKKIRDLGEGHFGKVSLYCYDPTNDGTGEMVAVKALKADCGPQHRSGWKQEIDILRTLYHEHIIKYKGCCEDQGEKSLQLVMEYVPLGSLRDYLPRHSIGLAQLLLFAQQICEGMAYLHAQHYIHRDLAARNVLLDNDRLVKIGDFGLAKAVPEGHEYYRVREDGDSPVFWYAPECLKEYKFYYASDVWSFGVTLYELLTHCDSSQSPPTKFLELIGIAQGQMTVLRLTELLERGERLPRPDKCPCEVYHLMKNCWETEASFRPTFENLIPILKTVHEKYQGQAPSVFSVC

[22] = target: Tyrosine-protein kinase Yes (Homo sapiens, UniProt P07947); assay: Inhibition of YES (unknown origin) incubated for 1 hr by spectrophotometric analysis

SMILES: CN1C(=O)COc2c1cnc1ccc(Sc3nnc4c(F)cc(-c5cnn(C)c5)cn34)cc21 [DALMELITINIB]
- IC50 [1]: 0.006 µM
- IC50 (A549): > 10 µM
- IC50 [2]: > 30 µM
- IC50 (Aurora kinase A): > 30 µM
- IC50 [3]: > 30 µM
- IC50 [4]: > 30 µM
- IC50 [5]: > 30 µM
- IC50 (Ephrin type-A receptor 2): > 30 µM
- IC50 [6]: > 30 µM
- IC50 (Ephrin type-A receptor 1): > 30 µM
- IC50 (Ephrin type-B receptor 2): > 30 µM
- IC50 [7]: > 30 µM
- IC50 [8]: > 30 µM
- IC50 [9]: > 30 µM
- IC50 [10]: > 30 µM
- IC50 [11]: > 30 µM
- IC50 [12]: > 30 µM
- IC50 [13]: > 30 µM
- IC50 [14]: > 30 µM
- IC50 [15]: > 30 µM
- IC50 [16]: > 30 µM
- IC50 [17]: > 30 µM
- IC50 [18]: > 30 µM
- IC50 [19]: 2.83 µM
- IC50 (Angiopoietin-1 receptor): > 30 µM
- IC50 [20]: > 30 µM
- IC50 [21]: > 30 µM
- IC50 [22]: > 30 µM
